Patent publication US20040146498A1, “Pharmaceutical combinations” (priority 2001, published 2004)

System: femoral artery thrombosis
Assay: Canine femoral artery thrombosis model
Assay type: in vivo
Settings: Compound A administered in combination with aspirin (pre-treatment) versus either agent alone; dog; FIG. 1; not statistically significant
Excerpt: Canine Femoral Artery Thrombosis Model—Compound A and Aspirin Compound A as defined above was used in combination with aspirin in a dog model of femoral artery thrombosis to determine whether combination of a P2T-receptor antagonist and pre-treatment with aspirin would have an improved profile when compared to the effect of either agent used alone.

Structure (SMILES): CCCSc1nc(N[C@@H]2C[C@H]2c2ccc(F)c(F)c2)c2nnn([C@@H]3C[C@H](OCCO)[C@@H](O)[C@H]3O)c2n1 [Compound A]
- anti-thrombotic potency (dose (ID50) required to produce 50% inhibition of thrombosis): trend for an increased anti-thrombotic potency
